Where two headings read alike, the source gives them in different places.
Tested on: Cluster 1 (213 genes)
Assay: RNAseq whole blood transcriptomics, WGCNA Cluster 1 and pathway analysis
Design: species or system human
Method: In order to gain insights into ANAVEX 2-73 response pathways, during the Phase 2 study, patients' DNA and RNA sequencing were analyzed. Transcriptomic samples of 65 patients enrolled in either High Dose or Mid Dose arms were collected at baseline and at the end of treatment (Week 14). The expression of 14,150 genes was measured. No transformation was applied to the TPM values. Values associated with a with RIN s 4.0 were discarded. The actual dose of ANAVEX 2-73 (blarcamesine) that was given to each patient during the trial was assessed and integrated into the database. To characterize the gene dysregulations, a pathway database was built using an aggregation of public databases including KEGG, Panther, Allen, Brain Atlas, Gene Ontology, and Reactome.
The genes were clustered together using WGCNA, starting from their correlation of TPM expression values across samples. Seventeen clusters with size ranging from 13 to 11,190 genes were obtained through this gene clusterisation. The TPM expression values of genes in clusters were then aggregated in a single “eigengene” for each cluster. This eigengene served as a representant of the overall dysregulation of the cluster. Secondly, a cluster filtering was performed, wherein patients' arm and dose information were taken into account based on mixed effect models. For each cluster, the eigengene was used as target variable of a linear mixed effect model with 3 covariates: ActualDose, Patient, and timepoint. For each cluster, the contrast ActualDose, i.e. treated vs placebo were evaluated across all timepoints. P-values were obtained with Dunnett's test. Regardless of the cluster and pathway, pathways with less than 4 genes in a cluster were removed, to compensate for the large variability of cluster size and corresponding variability of number of pathways identified in each clusters. The ratio between cluster size and number of pathways was calculated, and top 2 clusters were retained for further Analysis. Cluster 1 contained 213 genes (n1=213) and 37 pathways, and Cluster 2 contained 962 genes (n2=962) and 317 pathways. […] Thirdly, the two retained clusters were characterized and underwent pathway analysis. The characterization and analysis were applied to all the genes of the cluster (whole cluster), and to the genes of the clusters that are known to have biological interactions (reduced cluster). In the whole cluster analysis, overrepresented pathways were identified using EnrichR package with the parameters of Fisher's adjusted p-value p<0.05 (Benjamini-Hochberg adjustment for multiple testing) and minimum pathway size 20. In the reduced cluster analysis, genes that have no interaction with any other genes of the cluster were discarded, resulting in a reduced cluster. Pathway analysis was performed on these reduced clusters. False Discovery Rate with adjustment for multiple testing (Benjamini-Hochberg procedure) was used to characterize pathways' over-representation. Known interactions between the genes of the cluster were assessed using STRING database with the parameters of Edge score >0.150, and no text mining edges. Known interactions were obtained from public databases, such as KEGG, Panther, Allen, Brain Atlas, Gene Ontology, and Reactome.
Whole Blood Transcriptomics Analysis (RNAseq) of patients with Parkinson's disease with dementia (PDD) was performed for the ANAVEX®2-73-PDD-001 study (FIG. 1) at two timepoints: Baseline and Week 14 (end of trial). All available RNA samples with […] (RNA integrity number, using 130 samples) were analyzed. The expression of 14,150 genes at these two timepoints were analyzed from both placebo and ANAVEX® 2-73 treated patients.
The above method was performed as illustrated in FIG. 2B. […] Then, the cluster's eigengene3 (one of a set of a genes matrix that tabulates the mRNA or gene expression of the genes across the sample) was used as summary of expression level of the cluster. […]

CN(C)CC1CCOC1(c1ccccc1)c1ccccc1.Cl (centres unmarked) [ANAVEX2-73, tetrahydro-N,N-dimethyl-2,2-diphenyl-3-furanmethanamine hydrochloride]
Overlap: 13/273 | Number of pathways significantly overrepresented in first cluster (among its 37 pathways): 10 pathways | Overlap (genes of pathway in Cluster 1/genes in pathway, KEGG 2021, Alzheimer disease): 15/369 | Overlap (genes of pathway in Cluster 1/genes in pathway, KEGG 2021, Amyotrophic lateral sclerosis): 14/364 | Overlap (genes of pathway in Cluster 1/genes in pathway, KEGG 2021, Diabetic cardiomyopathy): 9/203 | Overlap (genes of pathway in Cluster 1/genes in pathway, KEGG 2021, Huntington disease): 13/306 | Overlap (genes of pathway in Cluster 1/genes in pathway, KEGG 2021, Non-alcoholic fatty liver disease): 8/155 | Overlap (genes of pathway in Cluster 1/genes in pathway, KEGG 2021, Oxidative phosphorylation): 8/133 | Overlap (genes of pathway in Cluster 1/genes in pathway, KEGG 2021, Parkinson disease): 12/249 | Overlap (genes of pathway in Cluster 1/genes in pathway, KEGG 2021, Pathways of neurodegeneration): 15/475 | Overlap (genes of pathway in Cluster 1/genes in pathway, KEGG 2021, Proteasome): 4/46

Source: patent publication US20260325481A1, “THERAPY SELECTION AND TREATMENT OF NEURODEGENERATIVE DISORDERS” (Anavex Life Sciences Corp., priority 2022, published 2026)
